Assay results from PMC5352699, “Synthesis and in vitro antitumor activity of (1E,4E)-1-aryl-5-(2-((quinazolin-4-yl)oxy)phenyl)-1,4-pentadien-3-one derivatives” (Chemistry Central Journal, 2017).

Tests used:
[1] = test system: human gastric cancer cell line MGC-803; test: MTT assay, MGC-803 cells; format: cell-based; details: for inhibition at 10 µM: 72 h, read-out: Inhibition rates against different cells (%) MGC-803; for IC50: 72 h after treatment
Procedure: (§1) The in vitro antitumor activity of the newly synthesized compounds 5a–5n were evaluated against a panel of three human cancer cell lines, including human gastric cancer cell line MGC-803, human prostate cancer cell line PC3, and human breast cancer cell line Bcap-37, and one normal cell line NIH3T3 (mouse embryo fibroblast cell line) by MTT method. Adriamycin (ADM) was chosen as a reference drug due to its availability and widespread use. Each experiment was repeated at least three times.
(§2) Human gastric cancer cell line MGC-803, human prostate cancer cell line PC3, and human breast cancer cell line Bcap-37 and one normal cell line NIH3T3 were obtained from Cell Bank of Type Culture Collection of Chinese Academy of Sciences (Shanghai, China). NIH3T3 was routinely maintained in a DMEM medium, while all the other cell lines were cultured in a 1640 medium. All the cells were grown in the medium supplemented with 10% FBS at 37 °C with 5% CO2.
(§3) The growth-inhibitory effects of the test compounds were determined on MGC-803, PC3, Bcap-37, and NIH3T3 cells. All cell types were seeded into 96-well plates at a density of 2 × 10^3 cells/well 100 μL of the proper culture medium and incubated with increasing concentrations of the compounds at 37 °C under cell culturing conditions. An MTT assay (Roche Molecular Biochemicals, 1465-007) was performed 72 h later according to the instructions provided by Roche. The precipitated formazan crystals were dissolved in SDS, and the absorbance was read at 595 nm with a microplate reader (BIO-RAD, model 680), which is directly proportional to the number of living cells in culture. The experiment was performed in triplicate. The percentage cytotoxicity was calculated using the formula. %Cytotoxicity=Controlabs-Blankabs-Testabs-Blankabs/Controlabs-Blankabs×100

[2] = test system: normal cell line NIH3T3 (mouse embryo fibroblast cell line); test: MTT assay, NIH3T3 normal cells; format: cell-based; details: 72 h, read-out: Inhibition rates against different cells (%) NIH3T3
Procedure: as §1, §2, §3

[3] = test system: human breast cancer cell line Bcap-37; test: MTT assay, Bcap-37 cells; format: cell-based; details: for inhibition at 10 µM: Bcap37, 10 μM, 72 h, read-out: Inhibition rates against different cells (%) Bcap-37; for IC50: Bcap37, 72 h after treatment
Procedure: as §1, §2, §3

[4] = test system: human prostate cancer cell line PC3; test: MTT assay, PC3 cells; format: cell-based; details: for inhibition at 10 µM: PC-3, 10 μM, 72 h, read-out: Inhibition rates against different cells (%) PC3; for IC50: PC-3, 72 h after treatment
Procedure: as §1, §2, §3

SMILES | IC50 [1] | IC50 [3] | IC50 [4] | melting point | inhibition at 10 µM [1] | inhibition at 10 µM [2] | inhibition at 10 µM [3] | inhibition at 10 µM [4]
Cc1ccc2ncnc(Oc3ccccc3/C=C/C(=O)/C=C/c3ccc(Cl)cc3)c2c1 [Compound 5c, (1E,4E)-1-(4-chlorophenyl)-5-(2-((6-methylquinazolin-4-yl)oxy)phenyl)penta-1,4-dien-3-one] | 5.44 ± 0.45 µM | 9.34 ± 0.52 µM | 7.85 ± 0.32 µM | 173 to 176 °C | 79.2 ± 2.8% | 16.1 ± 2.7% | 54.2 ± 1.1% | 76.5 ± 1.7%
Cc1cccc2c(Oc3ccccc3/C=C/C(=O)/C=C/c3ccc(Cl)cc3Cl)ncnc12 [Compound 5l, (1E,4E)-1-(2,4-dichlorophenyl)-5-(2-((8-methylquinazolin-4-yl)oxy)phenyl)penta-1,4-dien-3-one] | 4.33 ± 0.35 µM | 9.83 ± 0.46 µM | 9.08 ± 0.52 µM | 175 to 178 °C | 61.2 ± 1.3% | 0.8 ± 1.6% | 54.6 ± 1% | 55.7 ± 1.5%
Cc1ccc2ncnc(Oc3ccccc3/C=C/C(=O)/C=C/c3cc([N+](=O)[O-])ccc3Cl)c2c1 [Compound 5d, (1E,4E)-1-(2-chloro-5-nitrophenyl)-5-(2-((6-methylquinazolin-4-yl)oxy)phenyl)penta-1,4-dien-3-one] | 1.72 ± 0.22 µM | 7.52 ± 0.36 µM | 2.68 ± 0.43 µM | – | 87.5 ± 0.2% | 71.9 ± 1.4% | 58.5 ± 1.3% | 86.3 ± 0.8%
Cc1cccc2c(Oc3ccccc3/C=C/C(=O)/C=C/c3c(Cl)cccc3Cl)ncnc12 [Compound 5m, (1E,4E)-1-(2,6-dichlorophenyl)-5-(2-((8-methylquinazolin-4-yl)oxy)phenyl)penta-1,4-dien-3-one] | 2.05 ± 0.39 µM | 7.82 ± 0.39 µM | 3.79 ± 0.47 µM | 161 to 163 °C | 81.1 ± 1.7% | 12.4 ± 2.5% | 66.4 ± 1.5% | 81.2 ± 2.8%
Cc1cccc2c(Oc3ccccc3/C=C/C(=O)/C=C/c3ccccc3Cl)ncnc12 [Compound 5i, (1E,4E)-1-(2-chlorophenyl)-5-(2-((8-methylquinazolin-4-yl)oxy)phenyl)penta-1,4-dien-3-one] | 7.78 ± 0.48 µM | 10.7 ± 0.62 µM | 9.36 ± 0.52 µM | 152 to 154 °C | 79.4 ± 2.4% | 14.4 ± 2.6% | 47.1 ± 2.6% | 65.1 ± 2.6%
Cc1cccc2c(Oc3ccccc3/C=C/C(=O)/C=C/c3ccccc3F)ncnc12 [Compound 5h, (1E,4E)-1-(2-fluorophenyl)-5-(2-((8-methylquinazolin-4-yl)oxy)phenyl)penta-1,4-dien-3-one] | 9.06 ± 0.4 µM | 15.6 ± 0.51 µM | 11.7 ± 0.48 µM | – | 62.3 ± 1.4% | 13.4 ± 2.2% | 36.6 ± 2.7% | 43.7 ± 12.1%
COc1ccc(OC)c(/C=C/C(=O)/C=C/c2ccccc2Oc2ncnc3ccc(C)cc23)c1 [Compound 5g] | 2.02 ± 0.37 µM | 5.61 ± 0.5 µM | 2.18 ± 0.31 µM | 122 to 123 °C | 85.9 ± 1.2% | 74.3 ± 0.9% | 74.9 ± 2% | 83.1 ± 2.8%
COc1ccc(OC)c(/C=C/C(=O)/C=C/c2ccccc2Oc2ncnc3c(C)cccc23)c1 [Compound 5n, (1E,4E)-1-(2,5-dimethoxyphenyl)-5-(2-((8-methylquinazolin-4-yl)oxy)phenyl)penta-1,4-dien-3-one] | 3.33 ± 0.42 µM | 8.7 ± 0.54 µM | 4.16 ± 0.43 µM | 176 to 178 °C | 78.7 ± 2.7% | 29.6 ± 2.4% | 55.8 ± 1.1% | 69 ± 1.7%
Cc1cccc2c(Oc3ccccc3/C=C/C(=O)/C=C/c3cc([N+](=O)[O-])ccc3Cl)ncnc12 [Compound 5k, (1E,4E)-1-(2-chloro-5-nitrophenyl)-5-(2-((8-methylquinazolin-4-yl)oxy)phenyl)penta-1,4-dien-3-one] | 2.94 ± 0.32 µM | 8.92 ± 0.58 µM | 8.12 ± 0.46 µM | 198 to 200 °C | 82.1 ± 3% | 3 ± 2.3% | 60.2 ± 1.4% | 76.3 ± 2.5%

Further compounds by falling IC50 [1], results first:

IC50 [1] | IC50 [3] | IC50 [4] | melting point | SMILES | inhibition at 10 µM [1] | inhibition at 10 µM [2] | inhibition at 10 µM [3] | inhibition at 10 µM [4]
7.69 ± 0.37 µM | 11.7 ± 0.39 µM | 9.24 ± 0.46 µM | – | Cc1ccc2ncnc(Oc3ccccc3/C=C/C(=O)/C=C/c3ccccc3F)c2c1 [Compound 5a, (1E,4E)-1-(2-fluorophenyl)-5-(2-((6-methylquinazolin-4-yl)oxy)phenyl)penta-1,4-dien-3-one] | 71.9 ± 0.9% | 65.7 ± 1.3% | 44.1 ± 2.6% | 68.5 ± 2.3%
6.42 ± 0.44 µM | 12.1 ± 0.31 µM | 8.64 ± 0.47 µM | 161 to 163 °C | Cc1cccc2c(Oc3ccccc3/C=C/C(=O)/C=C/c3ccc(Cl)cc3)ncnc12 [Compound 5j, (1E,4E)-1-(4-chlorophenyl)-5-(2-((8-methylquinazolin-4-yl)oxy)phenyl)penta-1,4-dien-3-one] | 76.3 ± 0.8% | 41 ± 2.1% | 45.4 ± 2.2% | 71.9 ± 3.1%
5.2 ± 0.51 µM | 10.1 ± 0.67 µM | 8.12 ± 0.46 µM | 152 to 154 °C | Cc1ccc2ncnc(Oc3ccccc3/C=C/C(=O)/C=C/c3ccccc3Cl)c2c1 [Compound 5b, (1E,4E)-1-(2-chlorophenyl)-5-(2-((6-methylquinazolin-4-yl)oxy)phenyl)penta-1,4-dien-3-one] | 83.5 ± 1.5% | 15.4 ± 1.5% | 57.3 ± 2% | 78.7 ± 2.4%
1.89 ± 0.26 µM | 9.6 ± 0.42 µM | 4.71 ± 0.36 µM | 211 to 214 °C | Cc1ccc2ncnc(Oc3ccccc3/C=C/C(=O)/C=C/c3ccc(Cl)cc3Cl)c2c1 [Compound 5e, (1E,4E)-1-(2,4-dichlorophenyl)-5-(2-((6-methylquinazolin-4-yl)oxy)phenyl)penta-1,4-dien-3-one] | 87 ± 1% | 53.8 ± 1.8% | 67.3 ± 3.9% | 75.2 ± 7.8%
0.74 ± 0.24 µM | 1.9 ± 0.25 µM | 1.01 ± 0.2 µM | – | COc1cccc2c1C(=O)c1c(O)c3c(c(O)c1C2=O)C[C@@](O)(C(=O)CO)C[C@@H]3O[C@H]1C[C@H](N)[C@H](O)[C@H](C)O1 [ADM, Adriamycin, reference compound] | 97.5 ± 1.2% | 100 ± 0.7% | 94.5 ± 0.9% | 91.2 ± 0.4%
